Measurements reported in US20250011311A1, “AMIDO HETEROAROMATIC COMPOUNDS” (AstraZeneca AB, priority 2022, published 2025).
Where two headings read alike, the source gives them in different places.

Columns and labels:
[1] = target: recombinant 17bHSD4 (M1-N311) (Homo sapiens (Human), UniProt P51659); assay: In Vitro 17bHSD4 Enzyme Assay; assay type: biochemical; settings: 40 nM 17bHSD4, 0.125 mM NAD, 15 μM Estradiol, 1.5 h; NADH fluorescence; read-out: 17HSD17b4 Enzyme assay IC50
CYP2C9 = CYP2C9 (Homo sapiens (Human), UniProt P11712); assay: Assay B: Cytochrome P450 Inhibition 2C9
Procedure: A fluorescence-based method in 96-well format was used to determine the inhibition of 2C9 (Crespi, C. L. et al., Microtiter plate assays for inhibition of human, drug-metabolizing cytochromes P450. Anal Biochem 1997, 248 (1), 188-190. DOI: 10.1006/abio.1997.2145, which is incorporated herein by reference). The recombinant human enzymes used were prepared in house, except for CYP2D6 (CYPEX LTD, Dundee, UK). Different coumarin substrates, biotransformed into fluorescent metabolites, were used as probes for each individual CYP. A fluorescence plate reader (SPECTRAMAX GEMINIXS, MOLECULAR DEVICES, Sunnyvale, California, USA) was used to measure the levels of metabolites formed. A dilution series of the test substrates was prepared at eight different concentrations. For each CYP, a mixture of the enzyme, corresponding coumarin substrate, potassium phosphate buffer pH 7.4 and water (concentrations and volumes were CYP-dependent) were added to each well in a black 96-well plate. The test substrates at different concentrations were added. After 10 min pre-incubation, the co-factor NADPH was added to initiate the reaction. After 20-50 min (CYP and substrate-dependent) the reaction was terminated by addition of trisbase/MeCN (20:80). The plates were transferred to the fluorescence plate reader where the wavelengths were set individually for the different coumarin substrates and their respective fluorescent metabolite. The responses were exported to Excel where the IC50 curves were plotted (percent inhibition versus concentration) and IC50 values calculated for each test substrate and enzyme using XL-fit.

human hepatocytes = assay: Assay A: Metabolic Stability in Human Hepatocytes; assay type: in vitro ADME; settings: cryopreserved human hepatocytes, 10^6 viable cells/mL, 1 μM compound, 37° C.
Procedure: Assay A: Metabolic Stability in Human Hepatocytes
Hepatocyte metabolic stability was determined in accordance with the method described by Jacobson et al., An optimized automated assay for determination of metabolic stability using hepatocytes: assay validation, variance component analysis, and in vivo relevance. Assay Drug Dev Technol 2007, 5 (3), 403-415. DOI: 10.1089/adt.2007.059, which is incorporated herein by reference. Cryopreserved hepatocytes at a concentration of 10^6 viable cells/mL were used. After thawing, hepatocytes were incubated for 10 min to warm to 37° C. and test compounds, dissolved in acetonitrile, were added to give a final concentration of 1 μM. At 0.5, 5, 15, 30, 45, 60, 80, 100 and 120 min, the incubation system was mixed and 20 μL aliquots were transferred at each time point to wells in a separate plate filled with 80 μL MeCN to stop the reaction. The quenching plate was then vortexed followed by centrifugation, and supernatants were analyzed by LC-MS/MS. Peak areas were determined from extracted ion chromatograms, and the in vitro intrinsic clearance (in vitro CLint, in μL/min/10^6 cells) of parent compound was calculated from the slope in the regression analysis of the natural logarithm of parent concentration vs time curve.

[2] = target: recombinant 17bHSD13 (N2-K300) (Homo sapiens (Human), UniProt Q7Z5P4); assay: In Vitro 17bHSD13 Enzyme Assay; assay type: biochemical; settings: 80 nM 17bHSD13, 0.5 mM NAD, 20 μM Estradiol, 2.5 h; estradiol to estrone by LC-MS/MS
Summary of the method: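 Human 17bHSD13 (N2-K300, 80 nM) with 0.5 mM NAD, 20 μM estradiol and varied compound in 50 mM Tris-Cl pH 7.4, 5 mM EDTA, 0.01% DDM. Estrone/(estrone+estradiol) ratio read by LC-MS/MS (APCI, positive MRM). Inhibition normalised to DMSO and a known-inhibitor control; IC50 from curve fit.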

[3] = target: over expressed HSD17β13 in HEK293S cells (Homo sapiens (Human), UniProt Q7Z5P4); assay: In Vitro 17bHSD13 Cell Assay; assay type: cell-based
Summary of the method: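 HEK293S cells overexpressing HSD17β13 convert estradiol to estrone; product read by LC-MS/MS (APCI, positive MRM) as AUC ratio estrone/(estrone+estradiol). Effect normalised between DMSO and maximal inhibition by a known inhibitor control; IC50 from curve fit.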

[4] = target: over expressed HSD17β9 in HEK293S cells (Homo sapiens (Human), UniProt Q92781); assay: In Vitro 17bHSD9 Cell Assay; assay type: cell-based
Summary of the method: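 HEK293S cells overexpressing HSD17β9 were plated at 10K cells/well in DMEM + 10% FBS and cultured 18 h. Retinol-to-retinal conversion in media was quantified by LC-MS/MS (MRM) as retinal/(retinal + retinol). IC50 was fitted after normalisation to DMSO and full inhibition by a reference inhibitor.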

[5] = HEK293S cells over expressing HSD17β13, estradiol to estrone conversion, 18 h, LC-MS/MS, read-out: 17bHSD1713 Cell assay IC50
[6] = HEK293S cells over expressing HSD17β9, retinol to retinal conversion, 18 h, LC-MS/MS, read-out: 17bHSD9 Cell assay IC50

Chain of CYP2C9 (P11712 whole entry): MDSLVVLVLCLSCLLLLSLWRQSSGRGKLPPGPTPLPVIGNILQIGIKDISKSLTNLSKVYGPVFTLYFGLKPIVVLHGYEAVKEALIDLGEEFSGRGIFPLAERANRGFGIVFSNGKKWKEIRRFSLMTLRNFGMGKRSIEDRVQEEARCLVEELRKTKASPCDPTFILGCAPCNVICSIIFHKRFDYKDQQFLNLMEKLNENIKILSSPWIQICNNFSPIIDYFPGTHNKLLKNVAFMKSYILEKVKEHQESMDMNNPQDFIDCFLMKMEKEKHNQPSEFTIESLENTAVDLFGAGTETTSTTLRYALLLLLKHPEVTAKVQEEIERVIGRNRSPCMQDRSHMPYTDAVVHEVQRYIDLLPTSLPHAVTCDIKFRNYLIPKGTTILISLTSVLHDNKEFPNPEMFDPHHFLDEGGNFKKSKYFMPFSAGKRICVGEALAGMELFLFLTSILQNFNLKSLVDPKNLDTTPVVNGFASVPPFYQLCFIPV
Chain of recombinant 17bHSD4 (M1-N311) (P51659 1-311): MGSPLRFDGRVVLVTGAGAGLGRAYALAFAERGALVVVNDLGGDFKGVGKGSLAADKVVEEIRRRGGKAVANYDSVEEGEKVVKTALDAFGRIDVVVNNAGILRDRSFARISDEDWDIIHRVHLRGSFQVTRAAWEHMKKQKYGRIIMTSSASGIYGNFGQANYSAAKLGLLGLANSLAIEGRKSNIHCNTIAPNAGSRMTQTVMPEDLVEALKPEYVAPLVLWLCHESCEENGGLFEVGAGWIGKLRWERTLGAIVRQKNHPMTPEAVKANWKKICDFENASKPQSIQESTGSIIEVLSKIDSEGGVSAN
Chain of recombinant 17bHSD13 (N2-K300) (Q7Z5P4 2-300): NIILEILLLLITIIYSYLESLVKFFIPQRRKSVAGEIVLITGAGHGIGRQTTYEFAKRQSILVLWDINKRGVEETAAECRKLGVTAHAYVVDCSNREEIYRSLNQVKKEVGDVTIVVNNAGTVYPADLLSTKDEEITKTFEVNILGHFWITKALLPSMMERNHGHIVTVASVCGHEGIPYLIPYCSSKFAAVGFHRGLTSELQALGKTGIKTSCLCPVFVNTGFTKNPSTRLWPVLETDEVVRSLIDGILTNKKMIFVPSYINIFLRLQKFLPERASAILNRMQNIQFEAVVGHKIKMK
Chain of over expressed HSD17β9 in HEK293S cells (Q92781 whole entry): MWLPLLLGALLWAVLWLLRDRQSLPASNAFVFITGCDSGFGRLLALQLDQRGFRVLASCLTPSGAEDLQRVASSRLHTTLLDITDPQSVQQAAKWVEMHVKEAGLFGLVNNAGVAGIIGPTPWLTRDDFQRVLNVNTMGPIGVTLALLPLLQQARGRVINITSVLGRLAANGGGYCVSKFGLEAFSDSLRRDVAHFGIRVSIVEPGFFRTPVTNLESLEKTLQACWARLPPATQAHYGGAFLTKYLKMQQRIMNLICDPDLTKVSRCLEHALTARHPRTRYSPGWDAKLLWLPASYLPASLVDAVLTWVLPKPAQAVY
Chain of over expressed HSD17β13 in HEK293S cells (Q7Z5P4 20-300): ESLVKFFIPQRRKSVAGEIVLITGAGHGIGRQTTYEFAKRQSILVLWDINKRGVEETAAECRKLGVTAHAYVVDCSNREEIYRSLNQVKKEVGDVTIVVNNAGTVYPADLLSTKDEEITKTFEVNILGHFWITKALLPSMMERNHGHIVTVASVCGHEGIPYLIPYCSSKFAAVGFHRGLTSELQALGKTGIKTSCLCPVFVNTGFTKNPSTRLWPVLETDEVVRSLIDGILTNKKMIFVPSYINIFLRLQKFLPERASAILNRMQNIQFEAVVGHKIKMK

SMILES: O=C(c1noc(-c2cc(F)c(F)c(O)c2F)n1)N1CCN(c2ccccn2)CC1 [Example 58, (4-(Pyridin-2-yl)piperazin-1-yl)(5-(2,4,5-trifluoro-3-hydroxyphenyl)-1,2,4-oxadiazol-3-yl)methanone]
- IC50 [1]: 20600 nM
- IC50 (CYP2C9): 7300 nM
- Assay A: Human Heps Met Clint GMean CLint (μl/min/1E6) (human hepatocytes): 24.6 μl/min/1E6
- IC50 [2]: 103 nM
- IC50 [3, 5]: 1080 nM

SMILES: N#Cc1ccc(C2CCN(C(=O)c3noc(-c4cc(F)c(F)c(O)c4F)n3)CC2)cc1 [Example 56, 4-(1-(5-(2,4,5-Trifluoro-3-hydroxyphenyl)-1,2,4-oxadiazole-3-carbonyl)piperidin-4-yl)benzonitrile]
- IC50 [1]: 23500 nM
- IC50 (CYP2C9): 5100 nM
- Assay A: Human Heps Met Clint GMean CLint (μl/min/1E6) (human hepatocytes): 5.9 μl/min/1E6
- IC50 [2]: 142 nM
- IC50 [3, 5]: 1360 nM

SMILES: C[C@@H]1CN(C(=O)c2noc(-c3c(F)c(O)c(F)c(F)c3Br)n2)C[C@H](C)O1 [Example 124, (5-(2-Bromo-3,4,6-trifluoro-5-hydroxyphenyl)-1,2,4-oxadiazol-3-yl)((2R,6S)-2,6-dimethylmorpholino)methanone]
- IC50 [4, 6]: 24100 nM
- IC50 (CYP2C9): 27000 nM
- Assay A: Human Heps Met Clint GMean CLint (μl/min/1E6) (human hepatocytes): 11.1 μl/min/1E6
- IC50 [2]: 42 nM

SMILES: N#Cc1ccc(N2CCN(C(=O)c3noc(-c4cc(F)c(F)c(O)c4F)n3)CC2)cc1 [Example 83, 4-(4-(5-(2,4,5-Trifluoro-3-hydroxyphenyl)-1,2,4-oxadiazole-3-carbonyl)piperazin-1-yl)benzonitrile]
- IC50 [1]: 14400 nM
- IC50 (CYP2C9): 6200 nM
- Assay A: Human Heps Met Clint GMean CLint (μl/min/1E6) (human hepatocytes): 11.8 μl/min/1E6
- IC50 [2]: 102 nM
- IC50 [3, 5]: 2880 nM

SMILES: CC(C)(C)N(Cc1ccccn1)C(=O)c1noc(-c2cc(F)c(F)c(O)c2F)c1C#N [Example 19, N-(tert-Butyl)-4-cyano-N-(pyridin-2-ylmethyl)-5-(2,4,5-trifluoro-3-hydroxyphenyl)isoxazole-3-carboxamide]
- IC50 [1]: 19600 nM
- IC50 (CYP2C9): 1000 nM
- Assay A: Human Heps Met Clint GMean CLint (μl/min/1E6) (human hepatocytes): 4.3 μl/min/1E6
- IC50 [2]: 108 nM
- IC50 [3, 5]: 2010 nM

SMILES: O=C(c1noc(-c2cc(F)c(F)c(O)c2F)n1)N1CC(c2ccccc2)C1 [Example 60, (3-Phenylazetidin-1-yl)(5-(2,4,5-trifluoro-3-hydroxyphenyl)-1,2,4-oxadiazol-3-yl)methanone]
- IC50 [1]: 11000 nM
- IC50 (CYP2C9): 3900 nM
- Assay A: Human Heps Met Clint GMean CLint (μl/min/1E6) (human hepatocytes): 13.8 μl/min/1E6
- IC50 [2]: 137 nM
- IC50 [3, 5]: 2980 nM

SMILES: N#Cc1c(C(=O)N2CC[C@@H](c3ccc(Cl)cc3)C2)noc1-c1cc(F)c(F)c(O)c1F [Example 21, (S)-3-(3-(4-Chlorophenyl)pyrrolidine-1-carbonyl)-5-(2,4,5-trifluoro-3-hydroxyphenyl)isoxazole-4-carbonitrile]
- IC50 [4, 6]: 22600 nM
- IC50 (CYP2C9): 200 nM
- Assay A: Human Heps Met Clint GMean CLint (μl/min/1E6) (human hepatocytes): 13.3 μl/min/1E6
- IC50 [2]: 32 nM
- IC50 [3, 5]: 660 nM

SMILES: N#CC1(c2ccccc2)CCN(C(=O)c2noc(-c3cc(F)c(F)c(O)c3F)n2)CC1 [Example 80, 4-Phenyl-1-(5-(2,4,5-trifluoro-3-hydroxyphenyl)-1,2,4-oxadiazole-3-carbonyl)piperidine-4-carbonitrile]
- IC50 [4]: 8200 nM
- IC50 [1]: 21900 nM
- IC50 (CYP2C9): 3300 nM
- Assay A: Human Heps Met Clint GMean CLint (μl/min/1E6) (human hepatocytes): 9.8 μl/min/1E6
- IC50 [2]: 111 nM
- IC50 [3]: 460 nM

SMILES: N#Cc1c(C(=O)N2CCN(c3ccccn3)CC2)noc1-c1cc(F)c(F)c(O)c1F [Example 15, 3-(4-(Pyridin-2-yl)piperazine-1-carbonyl)-5-(2,4,5-trifluoro-3-hydroxyphenyl)isoxazole-4-carbonitrile]
- IC50 [1]: 37700 nM
- IC50 (CYP2C9): 2100 nM
- Assay A: Human Heps Met Clint GMean CLint (μl/min/1E6) (human hepatocytes): 59.8 μl/min/1E6
- IC50 [2]: 489 nM
- IC50 [3, 5]: 970 nM

SMILES: N#Cc1ccccc1N1CCN(C(=O)c2noc(-c3cc(F)c(F)c(O)c3F)n2)CC1 [Example 82, 2-(4-(5-(2,4,5-Trifluoro-3-hydroxyphenyl)-1,2,4-oxadiazole-3-carbonyl)piperazin-1-yl)benzonitrile]
- IC50 [4, 6]: > 50000 nM
- IC50 (CYP2C9): 4300 nM
- Assay A: Human Heps Met Clint GMean CLint (μl/min/1E6) (human hepatocytes): 15.4 μl/min/1E6
- IC50 [2]: 62 nM
- IC50 [3, 5]: 450 nM

SMILES: O=C(c1noc(-c2cc(F)c(F)c(O)c2F)n1)N1CCC(OCc2ccccc2)C1 (centres unmarked) [Example 97, (3-(Benzyloxy)pyrrolidin-1-yl)(5-(2,4,5-trifluoro-3-hydroxyphenyl)-1,2,4-oxadiazol-3-yl)methanone]
- IC50 [1]: 26200 nM
- IC50 (CYP2C9): 1800 nM
- Assay A: Human Heps Met Clint GMean CLint (μl/min/1E6) (human hepatocytes): 46.6 μl/min/1E6
- IC50 [2]: 122 nM
- IC50 [3, 5]: 890 nM

SMILES: N#Cc1ccc(C2CN(C(=O)c3noc(-c4cc(F)c(F)c(O)c4F)n3)C2)cc1 [Example 59, 4-(1-(5-(2,4,5-Trifluoro-3-hydroxyphenyl)-1,2,4-oxadiazole-3-carbonyl)azetidin-3-yl)benzonitrile]
- IC50 [4, 6]: > 50000 nM
- IC50 (CYP2C9): 13100 nM
- Assay A: Human Heps Met Clint GMean CLint (μl/min/1E6) (human hepatocytes): 10.2 μl/min/1E6
- IC50 [2]: 608 nM
- IC50 [3, 5]: 3470 nM

SMILES: O=C(c1noc(-c2cc(F)c(F)c(O)c2F)n1)N1CCC(Oc2cccnc2)CC1 [Example 70, (4-(Pyridin-3-yloxy)piperidin-1-yl)(5-(2,4,5-trifluoro-3-hydroxyphenyl)-1,2,4-oxadiazol-3-yl)methanone]
- IC50 (CYP2C9): 18400 nM
- Assay A: Human Heps Met Clint GMean CLint (μl/min/1E6) (human hepatocytes): 12.4 μl/min/1E6
- IC50 [2]: 242 nM
- IC50 [3, 5]: 2220 nM

SMILES: Cn1nc(C2CC2)c2c1CCN(C(=O)c1noc(-c3cc(F)c(F)c(O)c3F)c1C#N)C2 [Example 20, 3-(3-Cyclopropyl-1-methyl-4,5,6,7-tetrahydro-1H-pyrazolo[4,3-c]pyridine-5-carbonyl)-5-(2,4,5-trifluoro-3-hydroxyphenyl)isoxazole-4-carbonitrile]
- IC50 [4, 6]: 29400 nM
- IC50 (CYP2C9): 400 nM
- Assay A: Human Heps Met Clint GMean CLint (μl/min/1E6) (human hepatocytes): 16.8 μl/min/1E6
- IC50 [2]: 63 nM
- IC50 [3, 5]: 2400 nM

SMILES: N#Cc1ccc2c(c1)CN(C(=O)c1noc(-c3cc(F)c(F)c(O)c3F)n1)C2 [Example 106, 2-(5-(2,4,5-Trifluoro-3-hydroxyphenyl)-1,2,4-oxadiazole-3-carbonyl)isoindoline-5-carbonitrile]
- IC50 [4, 6]: > 50000 nM
- IC50 (CYP2C9): 5900 nM
- Assay A: Human Heps Met Clint GMean CLint (μl/min/1E6) (human hepatocytes): 16.1 μl/min/1E6
- IC50 [2]: 516 nM
- IC50 [3, 5]: 1220 nM

SMILES: O=C(c1nnc(-c2ccc(F)c(O)c2)o1)N1CCOC2(CCC2)C1 [Example 90, (5-(4-Fluoro-3-hydroxyphenyl)-1,3,4-oxadiazol-2-yl)(5-oxa-8-azaspiro[3.5]nonan-8-yl)methanone]
- IC50 [1]: > 50000 nM
- IC50 (CYP2C9): > 30000 nM
- Assay A: Human Heps Met Clint GMean CLint (μl/min/1E6) (human hepatocytes): >300 μl/min/1E6
- IC50 [2]: 626 nM
- IC50 [3, 5]: 1690 nM

SMILES: N#Cc1c(C(=O)N2CCN(c3ccc4nnc(C(F)(F)F)n4n3)CC2)noc1-c1cc(F)c(F)c(O)c1F [Example 17, 5-(2,4,5-Trifluoro-3-hydroxyphenyl)-3-(4-(3-(trifluoromethyl)-[1,2,4]triazolo[4,3-b]pyridazin-6-yl)piperazine-1-carbonyl)isoxazole-4-carbonitrile]
- IC50 (CYP2C9): 200 nM
- Assay A: Human Heps Met Clint GMean CLint (μl/min/1E6) (human hepatocytes): 6.5 μl/min/1E6
- IC50 [2]: 525 nM
- IC50 [3, 5]: 3100 nM
